As usually defined, the AC50 is the concentration giving half of the maximal activity seen.

The text below walks through data of US11001588B2, “Activating pyruvate kinase R and mutants thereof” (FORMA Therapeutics, Inc., priority 2018, dated 2021).

The structures appear in SMILES notation.

For one assay, the target named is PKR(R510Q) (Homo sapiens, UniProt P30613, R510Q). The assay can be described thus: Luminescence Biochemical Assay (Kinase Glo Plus), PKR R510Q. Particulars: without FBP; for AC50: read-out: D—AC50 LUM KGP woFBP AC50 μM gmean. As for the experimental part: (§1) In some embodiments, a PKR Activating Compound refers to a compound having one or more characteristics when tested according to the following Luminescence Assay Protocol of Example 3 performed with wild type (wt) PKR and/or any one or more of G332S mutant form of PKR or R510Q mutant form of PKR: (1) an AC50 value of less than 40 μM (e.g., compounds with AC50 values of “+”, “++”, or “+++” in Table 2); (2) a maximum % Fold (MAX % Fold) value of greater than 75%; and/or (3) a % Fold value at 1.54 μM compound concentration (% Fold@1.54 μM) of at least 75%. In some embodiments, a PKR Activating Compound can have: (1) an AC50 value of less than 0.1 μM (e.g., compounds with AC50 values of “+++” in Table 2), 0.1-1.0 μM (e.g., compounds with AC50 values of “++” in Table 2), or 1.01-40 μM (e.g., compounds with AC50 values of “+” in Table 2); (2) a MAX % Fold of 75%-250%, 250-500%, or 75%-500%; and/or (3) a % Fold@1.54 μM of 75%-250%, 250-500%, or 75%-500%. In some embodiments, a PKR Activating Compound has (1) an AC50 value of less than 1.0 μM; (2) a MAX % Fold of 75%-500%; and/or (3) a % Fold@1.54 μM of 75%-500%.
Chain of PKR(R510Q) (P30613 whole entry R510Q): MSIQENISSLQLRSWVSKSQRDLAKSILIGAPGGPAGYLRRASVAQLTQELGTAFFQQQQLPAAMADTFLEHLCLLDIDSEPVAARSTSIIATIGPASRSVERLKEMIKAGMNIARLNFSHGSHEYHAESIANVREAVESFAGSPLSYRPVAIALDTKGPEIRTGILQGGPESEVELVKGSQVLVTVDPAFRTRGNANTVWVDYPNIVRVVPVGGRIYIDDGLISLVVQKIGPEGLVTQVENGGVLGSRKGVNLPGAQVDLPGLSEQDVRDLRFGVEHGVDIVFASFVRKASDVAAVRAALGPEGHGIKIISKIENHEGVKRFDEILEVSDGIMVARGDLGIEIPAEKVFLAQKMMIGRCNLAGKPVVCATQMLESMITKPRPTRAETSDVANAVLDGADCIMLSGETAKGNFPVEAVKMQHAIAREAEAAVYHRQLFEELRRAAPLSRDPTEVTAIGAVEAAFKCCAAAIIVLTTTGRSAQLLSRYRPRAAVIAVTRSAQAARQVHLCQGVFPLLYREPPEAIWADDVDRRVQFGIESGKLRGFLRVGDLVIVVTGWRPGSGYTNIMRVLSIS
(§2) The phosphorylation of Adenosine-5′-diphosphate (ADP) by various mutants of PKR was determined by the Kinase Glo Plus Assay (Promega) in the presence or absence of FBP [D-Fructose-1,6-diphosphate; BOC Sciences, CAS: 81028-91-3] as follows. Unless otherwise indicated, all reagents were purchased from Sigma-Aldrich. All reagents were prepared in buffer containing 50 mM Tris-HCl, 100 mM KCl, 5 mM MgCl2, and 0.01% Triton X100, 0.03% BSA, and 1 mM DTT. Enzyme and PEP [Phospho(enol) pyruvic acid] were added at 2× to all wells of an assay-ready plate containing serial dilutions of test compounds or DMSO vehicle. Final enzyme concentrations for PKR(wt), PKR(R510Q), and PKR(G332S) were 0.8 nM, 0.8 nM, and 10 nM respectively. Final PEP concentration was 100 μM. The Enzyme/PEP mixture was incubated with compounds for 30 minutes at RT before the assay was initiated with the addition of 2×ADP [Adenosine-5′-diphosphate] and KinaseGloPlus. Final concentration of ADP was 100 μM. […] For assays containing FBP, that reagent is added at 30 μM upon reaction initiation. Reactions were allowed to progress for 45 minutes at RT until luminescence was recorded by the BMG PHERAstar FS Multilabel Reader. All compounds were tested in triplicate at concentrations ranging from 42.5 μM to 2.2 nM in 0.83% DMSO.
Luminescence values were converted to % Fold increase by normalizing to the average of the DMSO control and multiplying by 100. Max, min, slope and AC50 were determined by the standard four parameter fit algorithm of ActivityBase XE Runner. Compounds were evaluated with three parameters—AC50, MAX % Fold, and % Fold@1.54 μM (FIG. 1). The AC50 value for a compound is the concentration (μM) corresponding to the midway between the maximum and minimum values of the four parameter logistic curve fit (i.e., at which the % fold increase along the four parameter logistic curve fit is halfway between MAX % Fold and MIN % Fold (% Fold Midpoint)), MAX % Fold is the highest fold increase observed at any concentration of compound, and % Fold@1.54 μM is the fold increase at a compound concentration of 1.54 μM. The parameter % Fold@1.54 μM was selected to capture elements of both the AC50 and MAX % Fold and to provide a ranking based on both potency and effect. […]
A general note: Kinase-Glo reads ATP consumption through a luciferase reaction.

For another assay, the target named is PKR(G332S) (Homo sapiens, UniProt P30613, G332S). The assay can be described thus: Luminescence Biochemical Assay (Kinase Glo Plus), PKR G332S. Conditions: with FBP (30 μM); for AC50: read-out: A—AC50 LUM KGP FBP AC50 μM gmean. On the procedure: as §1, §2
Chain of PKR(G332S) (P30613 whole entry G332S): as the sequence (P30613 whole entry R510Q) above, with G332S, Q510R counted along it
Luminescence values were converted to % Fold increase by normalizing to the average of the DMSO control and multiplying by 100. Max, min, slope and AC50 were determined by the standard four parameter fit algorithm of ActivityBase XE Runner. Compounds were evaluated with three parameters—AC50, MAX % Fold, and % Fold@1.54 μM (FIG. 1). […]

In the next assay the target is PKR(wt) (Homo sapiens, UniProt P30613). The assay can be described thus: Luminescence Biochemical Assay (Kinase Glo Plus), wild type PKR. Particulars: without FBP; for AC50: read-out: G—AC50 LUM KGP woFBP AC50 μM gmean. On the procedure:
as §1, §2
Luminescence values were converted to % Fold increase by normalizing to the average of the DMSO control and multiplying by 100. Max, min, slope and AC50 were determined by the standard four parameter fit algorithm of ActivityBase XE Runner. Compounds were evaluated with three parameters—AC50, MAX % Fold, and % Fold@1.54 μM (FIG. 1). The AC50 value for a compound is the concentration (μM) corresponding to the midway between the maximum and minimum values of the four parameter logistic curve fit (i.e., at which the % fold increase along the four parameter logistic curve fit is halfway between MAX % Fold and MIN % Fold (% Fold Midpoint)), MAX % Fold is the highest fold increase observed at any concentration of compound, and % Fold@1.54 μM is the fold increase at a compound concentration of 1.54 μM. The parameter % Fold@1.54 μM was selected to capture elements of both the AC50 and MAX % Fold and to provide a ranking based on both potency and effect. The compound concentration of 1.54 μM was chosen as one that can optimally differentiate the set of compounds based on the range of activities observed.
As set forth in Table 2 below, AC50 values (columns A, D, G) are defined as follows: ≤0.1 μM (+++); >0.1 μM and ≤1.0 μM (++); >1.0 μM and ≤40 μM (+); >40 μM (0). Max % FOLD values (columns B, E, H) are defined as follows: ≤75% (+); >75% and ≤250% (++); >250% and ≤500% (+++). % Fold@1.54 μM values (columns C, F, J) are defined as follows: ≤75% (+); >75% and ≤250% (++); >250% and ≤500% (+++).

Chain of PKR(wt) (P30613 whole entry): as the sequence (P30613 whole entry R510Q) above, with Q510R counted along it

Turning to `CN1CCOc2ccc(S(=O)(=O)N3CC4=C(CN(C(=O)C5(c6cccc(F)c6)CC5)C4)C3)cc21` [Compound 30], the AC50 on PKR(R510Q), at PKR(G332S) and on PKR(wt) was 1 to 40 µM throughout.

On to `O=C([C@H](O)c1ccccc1)N1CC2=C(C1)CN(S(=O)(=O)c1ccccn1)C2` [Compound 1, (2R)-2-hydroxy-2-phenyl-1-[5-(pyridine-2-sulfonyl)-1H,2H,3H,4H, 5H,6H-pyrrolo[3,4-c]pyrrol-2-yl]ethan-1-one], for which the “E—AC50 LUM KGP woFBP MAX % FOLD mean” value on PKR(R510Q) was “+++ (>250% and ≤500% (+++))”. For the same compound, at PKR(R510Q) (1.54 μM compound), the “F—AC50 LUM KGP woFBP % Fold@1.54 μM mean” value was “++ (>75% and ≤250% (++))”. In addition, on PKR(G332S), the “B—AC50 LUM KGP FBP MAX % FOLD mean” value was “++ (>75% and ≤250% (++))”. Moreover, the “C—AC50 LUM KGP FBP % Fold@1.54 μM mean” value on PKR(G332S) (1.54 μM compound) is “++ (>75% and ≤250% (++))”. At PKR(wt), the “H—AC50 LUM KGP woFBP MAX % FOLD mean” value was “++ (>75% and ≤250% (++))”; the half-maximal activity concentration (AC50) was not above 0.1 µM. Also, at PKR(wt) (1.54 μM compound), the “J—AC50 LUM KGP woFBP % Fold@1.54 μM mean” value is “++ (>75% and ≤250% (++))”.

As for `O=C(CC1CCS(=O)(=O)CC1)N1CC2=C(C1)CN(S(=O)(=O)c1ccc3occc3c1)C2` [Compound 28], the AC50 at PKR(wt) fell in the range of 1 to 40 µM.

Turning to `Cc1nc2ccc(S(=O)(=O)N3CC4=C(CN(C(=O)Cc5ccc(Cl)cc5)C4)C3)cc2s1` [Compound 24], the AC50 at PKR(R510Q) lay in the range of 1 to 40 µM.

In the case of `C[C@@H](C(=O)N1CC2=C(C1)CN(S(=O)(=O)c1c[nH]c3c(Cl)nccc13)C2)c1ccccc1` [Compound 25], the AC50 on PKR(R510Q) and at PKR(G332S) was 1 to 40 µM in each case.

`Cc1nn(C(C)C(=O)N2CC3=C(C2)CN(S(=O)(=O)c2ccc4occc4c2)C3)cc1Cl` (centres unmarked) [Compound 27]: at PKR(wt), the AC50 lay within 1 to 40 µM.

For `CN1CCOc2ccc(S(=O)(=O)N3CC4=C(CN(C(=O)CC5CCOCC5)C4)C3)cc21` [Compound 26], on PKR(wt), the AC50 was 1 to 40 µM.

Take `CC(=O)N1CCOc2ccc(S(=O)(=O)N3CC4=C(CN(C(=O)C(C)c5ccc(F)cc5)C4)C3)cc21` (centres unmarked) [Compound 29]: the AC50 on PKR(wt) fell in the range of 1 to 40 µM.
